Article PMC6081437, “The potency of the broad spectrum bacteriocin, bactofencin A, against staphylococci is highly dependent on primary structure, N-terminal charge and disulphide formation” (Scientific Reports, 2018)
Bridge positions count the residues as written; N and C are the ends. Square brackets hold non-standard residues; d marks the D form. Peptide text beside a SMILES is read from it.

Test system: S. aureus DPC5246
Type: cell-based, Staphylococcus aureus
Details: for Activity (Minimum Inhibitory Concentration, MIC): DPC5246, pH 6.8
Method: Peptides were resuspended at 1000 µM in 50 mM sodium phosphate buffer pH 6.8 and checked for purity by MALDI-TOF-MS. Peptides were serially diluted 1 in 4 to give a dilution series of 250, 62.50, 15.63, 3.91, 0.98 and 0.24 µM and assayed by the agar well diffusion assay described by Ryan et al.[19]. Briefly, 50 µl aliquots of each peptide concentration were plated on a S. aureus DPC5246 indicator plate and the plate incubated at 37 °C. Peptide activity (Minimum Inhibitory Concentration (MIC)) was taken as the lowest concentration of peptide to give a zone of inhibition. All assays were performed in triplicate. The dilution series values were rounded to the nearest whole number to give 1000, 250, 63, 16, 4, 1 and 0.25 µM and data is colour coded for ease of interpretation.

Structure (SMILES) | Activity (Minimum Inhibitory Concentration, MIC) [µM] | fold reduction in activity compared with bactofencin A (wild type) (S. aureus DPC5246, agar well diffusion MIC) [fold]
CSCC[C@@H]1NC(=O)CNC(=O)[C@H]([C@@H](C)O)NC(=O)[C@@H]2CCCN2C(=O)[C@@H](CCSC)NC(=O)CNC(=O)[C@H](CC(N)=O)NC(=O)[C@H](CC(N)=O)NC(=O)[C@H](Cc2ccc(O)cc2)NC(=O)[C@H](C(C)C)NC(=O)[C@H](CCCNC(=N)N)NC(=O)[C@@H](NC(=O)[C@H](CCCNC(=N)N)NC(=O)[C@H](Cc2c[nH]cn2)NC(=O)[C@H](CCCCN)NC(=O)[C@H](CCCCN)NC(=O)[C@H](CCCNC(=N)N)NC(=O)[C@@H](N)CCCCN)CSSC[C@@H](C(=O)O)NC(=O)[C@H](Cc2c[nH]c3ccccc23)NC(=O)[C@H](CCCNC(=N)N)NC(=O)[C@H](Cc2ccc(O)cc2)NC1=O [M14Md] (H-KRKKHRCRVYNNG[dM]PTGMYRWC-OH; disulfide 7-22; N-terminus assumed) | 63 | 63
CSCC[C@@H]1NC(=O)CNC(=O)[C@H](CC(N)=O)NC(=O)[C@H](CC(N)=O)NC(=O)[C@H](Cc2ccc(O)cc2)NC(=O)[C@H](C(C)C)NC(=O)[C@H](CCCNC(=N)N)NC(=O)[C@@H](NC(=O)[C@H](CCCNC(=N)N)NC(=O)[C@H](Cc2c[nH]cn2)NC(=O)[C@H](CCCCN)NC(=O)[C@H](CCCCN)NC(=O)[C@H](CCCNC(=N)N)NC(=O)[C@@H](N)CCCCN)CSSC[C@@H](C(=O)O)NC(=O)[C@H](Cc2c[nH]c3ccccc23)NC(=O)[C@H](CCCNC(=N)N)NC(=O)[C@H](Cc2ccc(O)cc2)NC(=O)[C@@H](CCSC)NC(=O)CNC(=O)[C@H]([C@@H](C)O)NC(=O)[C@@H]2CCCN2C1=O [M18Md] (H-KRKKHRCRVYNNGMPTG[dM]YRWC-OH; disulfide 7-22; N-terminus assumed) | 16 | 

More lines, main results first:

Activity (Minimum Inhibitory Concentration, MIC) [µM] | Structure (SMILES) | fold reduction in activity compared with bactofencin A (wild type) (S. aureus DPC5246, agar well diffusion MIC) [fold]
1 | CSCC[C@@H]1NC(=O)CNC(=O)[C@H](CC(N)=O)NC(=O)[C@H](CC(N)=O)NC(=O)[C@H](Cc2ccc(O)cc2)NC(=O)[C@H](C(C)C)NC(=O)[C@H](CCCNC(=N)N)NC(=O)[C@@H](NC(=O)[C@H](CCCNC(=N)N)NC(=O)[C@H](Cc2c[nH]cn2)NC(=O)[C@H](CCCCN)NC(=O)[C@H](CCCCN)NC(=O)[C@H](CCCNC(=N)N)NC(=O)[C@@H](N)CCCCN)CSSC[C@@H](C(=O)O)NC(=O)[C@H](Cc2c[nH]c3ccccc23)NC(=O)[C@H](CCCNC(=N)N)NC(=O)[C@H](Cc2ccc(O)cc2)NC(=O)[C@H](C)NC(=O)CNC(=O)[C@H]([C@@H](C)O)NC(=O)[C@@H]2CCCN2C1=O [M18A] (H-KRKKHRCRVYNNGMPTGAYRWC-OH; disulfide 7-22) | 
16 | CSCC[C@@H]1NC(=O)CNC(=O)[C@H]([C@@H](C)O)NC(=O)[C@@H]2CCCN2C(=O)[C@H](CCSC)NC(=O)CNC(=O)[C@H](CC(N)=O)NC(=O)[C@H](C)NC(=O)[C@H](Cc2ccc(O)cc2)NC(=O)[C@H](C(C)C)NC(=O)[C@H](CCCNC(=N)N)NC(=O)[C@@H](NC(=O)[C@H](CCCNC(=N)N)NC(=O)[C@H](Cc2c[nH]cn2)NC(=O)[C@H](CCCCN)NC(=O)[C@H](CCCCN)NC(=O)[C@H](CCCNC(=N)N)NC(=O)[C@@H](N)CCCCN)CSSC[C@@H](C(=O)O)NC(=O)[C@H](Cc2c[nH]c3ccccc23)NC(=O)[C@H](CCCNC(=N)N)NC(=O)[C@H](Cc2ccc(O)cc2)NC1=O [N11A] (H-KRKKHRCRVYANGMPTGMYRWC-OH; disulfide 7-22) | 
> 1000 | CSCC[C@@H]1NC(=O)CNC(=O)[C@H]([C@@H](C)O)NC(=O)[C@@H]2CCCN2C(=O)[C@H](CCSC)NC(=O)CNC(=O)[C@H](CC(N)=O)NC(=O)[C@@H](CC(N)=O)NC(=O)[C@H](Cc2ccc(O)cc2)NC(=O)[C@H](C(C)C)NC(=O)[C@H](CCCNC(=N)N)NC(=O)[C@@H](NC(=O)[C@H](CCCNC(=N)N)NC(=O)[C@H](Cc2c[nH]cn2)NC(=O)[C@H](CCCCN)NC(=O)[C@H](CCCCN)NC(=O)[C@H](CCCNC(=N)N)NC(=O)[C@@H](N)CCCCN)CSSC[C@@H](C(=O)O)NC(=O)[C@H](Cc2c[nH]c3ccccc23)NC(=O)[C@H](CCCNC(=N)N)NC(=O)[C@H](Cc2ccc(O)cc2)NC1=O [N11Nd] (H-KRKKHRCRVY[dN]NGMPTGMYRWC-OH; disulfide 7-22; N-terminus assumed) | 
